For three compounds, IC50, EC50 and AC50 results are on record in ChEMBL document CHEMBL1201862, “PubChem BioAssay data set” (2004).

Assay [1] can be described thus: Counterscreen for AddAB inhibitors: absorbance-based bacterial cell-based high throughput dose response assay for inhibitors of bacterial viability. [Related pubchem assays (depositor defined):AID435030, AID449728, AID449731, AID488942, AID488955, AID488956]. Format: functional. (The purpose of a counterscreen is to sort out artefacts and off-target activity.)
Assay [2] in a line: luciferase reporter signal suppression in cells – H4 neuroglioma cells, luminescence, dose response (AID 1990). The class given is functional, cell-based. A general note: In a reporter assay the amount or activity of a reporter protein is the signal.
Assay [3] is described as follows: DRD fibroblast viability loss – cell-based, non-viral oncogenic, luminescence, dose response (AID 1934). The class given is functional. The conditions noted are these: Homo sapiens.
Assay [4] in a line: cells. Format: functional, cell-based.
For the next assay, the target named is Exodeoxyribonuclease V (Escherichia coli (strain K12), UniProt P04993+P07648+P08394). The assay is described as follows: RecBCD inhibition via phage-restricted bacterial growth – absorbance, V66 E. coli, mutant T4 phage, counter-screen for AddAB inhibitor project, dose response (AID 492957). The class given is functional, cell-based, Escherichia coli str. K-12 substr. MG1655.

The target in a further assay is Nonstructural protein 1 (Influenza A virus, UniProt Q194T2). Format: functional, Influenza A virus (A/California/07/2009(H1N1)).
Sequence of Nonstructural protein 1 (Q194T2 whole entry): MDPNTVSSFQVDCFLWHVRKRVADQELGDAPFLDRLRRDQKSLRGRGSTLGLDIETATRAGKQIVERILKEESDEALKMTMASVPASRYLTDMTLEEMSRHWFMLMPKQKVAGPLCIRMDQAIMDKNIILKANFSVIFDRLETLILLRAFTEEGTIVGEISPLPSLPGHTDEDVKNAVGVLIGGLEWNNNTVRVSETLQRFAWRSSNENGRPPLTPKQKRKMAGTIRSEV
The next assay concerns INS1. The assay is described as follows: INS-1E survival protection against cytokine death – cell-based, luminescence, retest, dose response (AID 449756).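 Note: cell death triggered by IL-1 beta plus TNF-alpha plus IFN-gamma mixture; protective hits raise ATP signal compared with cytokine alone wells.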 The class given is functional. The conditions noted are these: Rattus norvegicus, INS1.
The subject of assay [5] is BJ. The assay is described as follows: BJ-TERT fibroblast viability loss – cell-based, RAS-independent, luminescence, dose response (AID 1933). Format: functional. The conditions noted are these: Homo sapiens.
The nature of assay [6]: Luminescence Cell-Based Dose Response HTS to Identify Inhibitors of 5'UTR Stem-Loop Driven Prion Protein mRNA Translation in H4 Neuroglioblastoma Cells. [Related pubchem assays: 1827 (Project Summary), 1813 (Primary HTS)]. Format: functional.
The test system of assay [7] is BJ. The assay is described as follows: BJ-TERT-LT-ST fibroblast viability loss – cell-based, RAS-independent, luminescence, dose response (AID 1935).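 Note: BJ fibroblasts immortalized with TERT plus LT and ST oncogenes.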 The conditions noted are these: Homo sapiens. Format: functional.
Assay [8] deals with T1, Replicative DNA helicase DnaB (Mycobacterium tuberculosis, UniProt P9WMR3).
T1 sequence (P9WMR3 whole entry): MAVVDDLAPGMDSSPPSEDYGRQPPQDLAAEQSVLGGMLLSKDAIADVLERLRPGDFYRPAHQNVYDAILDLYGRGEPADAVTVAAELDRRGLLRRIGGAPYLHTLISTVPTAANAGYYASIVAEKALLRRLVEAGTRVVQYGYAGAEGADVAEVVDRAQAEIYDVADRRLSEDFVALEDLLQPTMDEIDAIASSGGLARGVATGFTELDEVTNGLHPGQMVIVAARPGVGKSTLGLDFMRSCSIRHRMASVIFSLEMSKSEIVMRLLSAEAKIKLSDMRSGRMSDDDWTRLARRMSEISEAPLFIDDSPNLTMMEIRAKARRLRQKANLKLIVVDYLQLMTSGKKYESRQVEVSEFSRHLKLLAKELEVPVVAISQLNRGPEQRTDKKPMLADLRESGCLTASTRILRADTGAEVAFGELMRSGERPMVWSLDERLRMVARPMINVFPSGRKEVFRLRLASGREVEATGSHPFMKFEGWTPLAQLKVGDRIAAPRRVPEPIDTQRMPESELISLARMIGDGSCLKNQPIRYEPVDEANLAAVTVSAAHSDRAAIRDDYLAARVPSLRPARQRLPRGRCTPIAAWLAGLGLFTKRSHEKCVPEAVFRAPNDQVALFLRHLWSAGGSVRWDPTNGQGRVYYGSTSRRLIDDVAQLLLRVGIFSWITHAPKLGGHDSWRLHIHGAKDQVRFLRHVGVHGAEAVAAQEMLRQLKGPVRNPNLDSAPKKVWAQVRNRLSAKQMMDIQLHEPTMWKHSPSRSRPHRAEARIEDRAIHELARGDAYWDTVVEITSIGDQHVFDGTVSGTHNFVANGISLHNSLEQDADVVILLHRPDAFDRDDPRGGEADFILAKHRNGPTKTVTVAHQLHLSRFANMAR
Kind of assay: DnaB intein splicing inhibitors, dose response, biochemical, cell-free fluorescence (AID 449749). The class given is functional.

In assay [9] the test system is BJ. The assay is described as follows: growth inhibition of engineered Ras-driven BJ cells – cell-based, alamar blue fluorescence, cherrypicked samples, dose response (AID 2631).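 Note: confirmatory dose-response assay in RAS-dependent BJ fibroblasts engineered with TERT, LT and ST, with cytotoxicity read by fluorescence.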 Format: functional. The conditions noted are these: Homo sapiens. Background: The colour change of resazurin is a common sign of viable cells or microbes.
In another assay the target is T2, Streptokinase A (Streptococcus pyogenes serotype M1, UniProt P10520).
T2 sequence (P10520 whole entry): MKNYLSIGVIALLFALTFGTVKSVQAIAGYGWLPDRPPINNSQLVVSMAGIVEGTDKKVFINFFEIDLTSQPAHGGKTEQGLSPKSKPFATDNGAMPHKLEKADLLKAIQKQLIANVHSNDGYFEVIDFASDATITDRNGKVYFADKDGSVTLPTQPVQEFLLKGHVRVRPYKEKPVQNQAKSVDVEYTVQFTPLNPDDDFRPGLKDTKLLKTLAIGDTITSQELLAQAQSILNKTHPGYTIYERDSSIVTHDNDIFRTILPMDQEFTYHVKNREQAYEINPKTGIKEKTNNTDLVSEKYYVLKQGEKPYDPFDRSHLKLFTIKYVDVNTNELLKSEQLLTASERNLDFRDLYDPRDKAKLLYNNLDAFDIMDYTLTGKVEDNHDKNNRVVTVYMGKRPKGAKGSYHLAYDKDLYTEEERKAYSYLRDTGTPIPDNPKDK
The assay is described as follows: viability-normalized secreted streptokinase activity reduction – plasminogen activation absorbance, OD405, dose response (AID 1914).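 Note: secreted streptokinase activity via plasminogen activation per viability signal from cell pellet.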 Format: functional, Streptococcus pyogenes M1 GAS.

The subject of assay [10] is BJ. Kind of assay: cells. The class given is functional, cell-based. To be noted: Homo sapiens.
Another assay concerns Streptococcus. The assay is described as follows: GAS UMAA2166 growth inhibition – luminescence, BacTiterGlo, counter-screen for streptokinase expression inhibitor project, dose response (AID 1915).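 Note: potency for reduction of bacterial viability or growth.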 The class given is functional, organism-based.
A short description of assay [11]: cells. Format: functional, cell-based. The source holds these as a separate data set.
Another assay has as its target T3, Protein RecA (Mycobacterium tuberculosis, UniProt P9WHJ3).
T3 sequence (P9WHJ3 whole entry): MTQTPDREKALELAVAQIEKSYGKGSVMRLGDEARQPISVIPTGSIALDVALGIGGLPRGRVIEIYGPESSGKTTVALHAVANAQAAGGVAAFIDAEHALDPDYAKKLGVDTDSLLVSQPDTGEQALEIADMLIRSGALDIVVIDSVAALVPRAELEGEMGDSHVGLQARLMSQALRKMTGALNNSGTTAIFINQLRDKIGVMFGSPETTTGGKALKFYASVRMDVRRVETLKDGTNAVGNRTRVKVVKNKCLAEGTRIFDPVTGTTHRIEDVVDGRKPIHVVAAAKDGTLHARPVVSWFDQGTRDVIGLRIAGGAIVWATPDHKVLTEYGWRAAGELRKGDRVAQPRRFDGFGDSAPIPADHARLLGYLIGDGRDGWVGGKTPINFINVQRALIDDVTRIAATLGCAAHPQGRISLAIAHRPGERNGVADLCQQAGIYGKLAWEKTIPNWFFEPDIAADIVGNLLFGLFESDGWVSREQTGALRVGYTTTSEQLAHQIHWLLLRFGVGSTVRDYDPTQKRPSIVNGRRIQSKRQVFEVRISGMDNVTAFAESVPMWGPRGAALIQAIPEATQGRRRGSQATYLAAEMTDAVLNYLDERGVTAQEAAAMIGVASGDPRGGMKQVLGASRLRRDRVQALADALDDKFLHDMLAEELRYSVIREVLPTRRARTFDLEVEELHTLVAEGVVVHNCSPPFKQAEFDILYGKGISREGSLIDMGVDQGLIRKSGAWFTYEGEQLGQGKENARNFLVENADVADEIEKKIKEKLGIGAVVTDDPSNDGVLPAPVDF
The assay is described as follows: Fluorescence Cell-Free Homogeneous Dose Retest to Identify Inhibitors of RecA-Intein Splicing Activity. [Related pubchem assays (depositor defined):AID2097, AID2223, AID489010, AID492950]. Format: functional.

Assay [12] relates to Streptococcus sp. 'group A'. Kind of assay: Streptococcus pyogenes SK(-)GAS viability under kanamycin – luminescence, BacTiterGlo, confirmation, counter-screen for streptokinase expression inhibitor project, dose response (AID 1900). The class given is functional, organism-based.
Assay [13] can be described thus: alpha-synuclein stem-loop luciferase translation blockers – H4 neuroglioma cells, luminescence, confirmation (AID 1988). The class given is functional, cell-based.
The target in assay [14] is Heat shock protein HSP 90-alpha (Homo sapiens, UniProt P07900). Format: functional, organism-based.
In another assay the target is Phospholipase A2 (Homo sapiens, UniProt P04054). Format: functional.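 Note: confirmatory dose-response counterscreen on phospholipase A2, testing hits that came from an ultra-high-throughput screen for ATG4B inhibitors.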
Sequence of Phospholipase A2 (P04054 whole entry): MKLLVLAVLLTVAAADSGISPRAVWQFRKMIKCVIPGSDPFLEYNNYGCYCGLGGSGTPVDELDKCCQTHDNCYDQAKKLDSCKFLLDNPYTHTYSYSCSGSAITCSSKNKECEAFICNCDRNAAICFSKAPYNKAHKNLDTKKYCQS
In a further assay the target is T4, Cysteine protease ATG4B (Homo sapiens, UniProt Q9Y4P1).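 Note: Fluorescence-based dose-response confirmation assay measuring inhibition of ATG4B activity.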
T4 sequence (Q9Y4P1 whole entry): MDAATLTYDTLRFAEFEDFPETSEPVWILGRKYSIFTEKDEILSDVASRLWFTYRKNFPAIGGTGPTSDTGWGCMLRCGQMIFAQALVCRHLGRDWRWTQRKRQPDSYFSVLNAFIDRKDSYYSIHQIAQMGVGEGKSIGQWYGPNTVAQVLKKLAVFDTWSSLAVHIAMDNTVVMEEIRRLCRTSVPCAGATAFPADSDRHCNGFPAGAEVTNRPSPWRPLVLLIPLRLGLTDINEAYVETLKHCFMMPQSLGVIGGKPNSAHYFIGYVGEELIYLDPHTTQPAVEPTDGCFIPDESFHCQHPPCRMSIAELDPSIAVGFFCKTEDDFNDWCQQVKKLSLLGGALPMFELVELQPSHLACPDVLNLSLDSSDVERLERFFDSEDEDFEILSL
Format: functional.

The target in assay [15] is Tyrosine-protein phosphatase non-receptor type 7 (Homo sapiens, UniProt P35236). The assay is described as follows: inhibition of hematopoietic tyrosine phosphatase HePTP – biochemical, set 2, SAR follow-up (AID 449736). Format: functional.
Sequence of Tyrosine-protein phosphatase non-receptor type 7 (P35236 whole entry): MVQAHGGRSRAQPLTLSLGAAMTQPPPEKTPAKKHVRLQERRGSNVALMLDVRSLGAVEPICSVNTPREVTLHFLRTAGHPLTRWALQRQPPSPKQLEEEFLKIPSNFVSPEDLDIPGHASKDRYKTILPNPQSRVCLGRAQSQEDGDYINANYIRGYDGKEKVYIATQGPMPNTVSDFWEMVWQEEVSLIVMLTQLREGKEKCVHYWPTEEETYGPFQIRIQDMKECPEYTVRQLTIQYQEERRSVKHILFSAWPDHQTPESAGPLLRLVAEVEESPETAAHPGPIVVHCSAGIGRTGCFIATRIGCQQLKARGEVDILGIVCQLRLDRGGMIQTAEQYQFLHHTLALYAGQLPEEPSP
In assay [16] the target is G-protein coupled receptor 35 (Homo sapiens, UniProt Q9HC97). The assay is described as follows: SAR Analysis for the identification of Selective Antagonists of ERK1/2 Activity in GPR35-Overexpressing U2OS Cells. [Related pubchem assays: 2079, 2058 ]. Format: functional, cell-based.
Sequence of G-protein coupled receptor 35 (Q9HC97 whole entry): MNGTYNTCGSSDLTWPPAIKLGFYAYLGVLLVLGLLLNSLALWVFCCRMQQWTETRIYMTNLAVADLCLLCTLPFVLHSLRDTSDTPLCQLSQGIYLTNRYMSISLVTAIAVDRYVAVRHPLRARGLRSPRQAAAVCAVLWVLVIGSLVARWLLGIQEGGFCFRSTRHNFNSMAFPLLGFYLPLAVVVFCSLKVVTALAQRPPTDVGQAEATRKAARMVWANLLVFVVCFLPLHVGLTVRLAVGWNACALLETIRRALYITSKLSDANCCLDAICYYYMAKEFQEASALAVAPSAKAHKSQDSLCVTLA
The target of assay [17] is Tyrosine-protein phosphatase non-receptor type 12 (Homo sapiens, UniProt Q05209). The assay is described as follows: SAR Selectivity Analysis of small molecule inhibitors of PEST using pCAP in a fluorescence assay. [Related pubchem assays (depositor defined):AID1779, AID1784, AID2135]. The class given is functional.
Sequence of Tyrosine-protein phosphatase non-receptor type 12 (Q05209 whole entry): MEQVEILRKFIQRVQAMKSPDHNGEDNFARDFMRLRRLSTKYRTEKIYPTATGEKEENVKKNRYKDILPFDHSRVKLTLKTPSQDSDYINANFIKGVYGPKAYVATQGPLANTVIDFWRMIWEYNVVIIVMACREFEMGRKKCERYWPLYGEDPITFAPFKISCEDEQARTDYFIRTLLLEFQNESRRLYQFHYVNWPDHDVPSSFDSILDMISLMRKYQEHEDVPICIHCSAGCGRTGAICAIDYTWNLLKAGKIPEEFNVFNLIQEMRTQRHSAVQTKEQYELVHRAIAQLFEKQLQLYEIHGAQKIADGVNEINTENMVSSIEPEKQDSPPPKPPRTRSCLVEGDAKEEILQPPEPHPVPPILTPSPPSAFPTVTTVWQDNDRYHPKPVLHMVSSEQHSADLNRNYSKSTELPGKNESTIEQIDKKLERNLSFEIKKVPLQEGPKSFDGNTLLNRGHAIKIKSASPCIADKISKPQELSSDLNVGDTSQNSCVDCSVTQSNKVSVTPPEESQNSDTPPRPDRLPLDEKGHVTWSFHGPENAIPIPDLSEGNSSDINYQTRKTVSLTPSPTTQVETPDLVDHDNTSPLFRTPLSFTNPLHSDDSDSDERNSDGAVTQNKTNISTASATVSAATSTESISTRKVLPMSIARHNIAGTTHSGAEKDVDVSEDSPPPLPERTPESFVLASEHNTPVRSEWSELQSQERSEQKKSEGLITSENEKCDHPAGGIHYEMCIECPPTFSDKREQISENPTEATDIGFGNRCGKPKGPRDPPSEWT
Assay [18] deals with G-protein coupled receptor 55 (Homo sapiens, UniProt Q9Y2T6). Kind of assay: blockers of GPR55 signalling, imaged – imaging, image-based, counter-screen for GPR35 antagonist project, SAR follow-up (AID 2397). Format: functional.
Sequence of G-protein coupled receptor 55 (Q9Y2T6 whole entry): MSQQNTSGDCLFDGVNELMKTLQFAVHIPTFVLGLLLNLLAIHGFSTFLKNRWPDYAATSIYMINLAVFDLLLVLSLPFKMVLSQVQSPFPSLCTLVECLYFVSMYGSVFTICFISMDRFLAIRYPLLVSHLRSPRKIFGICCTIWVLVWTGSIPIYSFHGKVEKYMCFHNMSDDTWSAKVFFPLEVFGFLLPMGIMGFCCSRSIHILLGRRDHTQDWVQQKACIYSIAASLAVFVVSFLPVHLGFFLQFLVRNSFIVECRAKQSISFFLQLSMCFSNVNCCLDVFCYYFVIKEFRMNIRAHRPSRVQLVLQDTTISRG
Assay [19] concerns the target T5, Tyrosine-protein phosphatase non-receptor type 22 (Homo sapiens, UniProt Q9Y2R2). Kind of assay: inhibition of lymphoid tyrosine phosphatase LYP – biochemical, pCAP fluorogenic substrate, fluorescence, set 3, SAR follow-up (AID 449727). The class given is functional.
A short description of assay [20]: CCR5-tropic HIV-1 fusion blockers – cell-based, CCR5-tropic Env, dose response (AID 2279). Format: functional.
Assay [21] concerns the target T5, Tyrosine-protein phosphatase non-receptor type 22. The assay is described as follows: SAR LYP1 Fluorescent Assay using OMFP substrate for In Vitro dose response studies - Set 3. [Related pubchem assays (depositor defined):AID1779, AID1784, AID2140, AID2686]. Format: functional.
A further assay addresses SUMO E1/E2 (Homo sapiens, UniProt P63279+Q9UBE0+Q9UBT2). Kind of assay: SAR analysis of SUMOylation using HTRF in an in-Vitro dose response assay. [Related pubchem assays (depositor defined):AID2006, AID2011, AID2018, AID2069, AID2658]. The class given is functional.

SMILES strings stand for the structures. Activity calls are given as the source filed them.

As usually defined, the IC50 is the concentration at which inhibition is half-maximal. The EC50 is the concentration giving half of the maximal effect. As usually defined, the AC50 is the concentration giving half of the maximal activity seen.

T5 sequence (Q9Y2R2 whole entry, the tested form may be a part): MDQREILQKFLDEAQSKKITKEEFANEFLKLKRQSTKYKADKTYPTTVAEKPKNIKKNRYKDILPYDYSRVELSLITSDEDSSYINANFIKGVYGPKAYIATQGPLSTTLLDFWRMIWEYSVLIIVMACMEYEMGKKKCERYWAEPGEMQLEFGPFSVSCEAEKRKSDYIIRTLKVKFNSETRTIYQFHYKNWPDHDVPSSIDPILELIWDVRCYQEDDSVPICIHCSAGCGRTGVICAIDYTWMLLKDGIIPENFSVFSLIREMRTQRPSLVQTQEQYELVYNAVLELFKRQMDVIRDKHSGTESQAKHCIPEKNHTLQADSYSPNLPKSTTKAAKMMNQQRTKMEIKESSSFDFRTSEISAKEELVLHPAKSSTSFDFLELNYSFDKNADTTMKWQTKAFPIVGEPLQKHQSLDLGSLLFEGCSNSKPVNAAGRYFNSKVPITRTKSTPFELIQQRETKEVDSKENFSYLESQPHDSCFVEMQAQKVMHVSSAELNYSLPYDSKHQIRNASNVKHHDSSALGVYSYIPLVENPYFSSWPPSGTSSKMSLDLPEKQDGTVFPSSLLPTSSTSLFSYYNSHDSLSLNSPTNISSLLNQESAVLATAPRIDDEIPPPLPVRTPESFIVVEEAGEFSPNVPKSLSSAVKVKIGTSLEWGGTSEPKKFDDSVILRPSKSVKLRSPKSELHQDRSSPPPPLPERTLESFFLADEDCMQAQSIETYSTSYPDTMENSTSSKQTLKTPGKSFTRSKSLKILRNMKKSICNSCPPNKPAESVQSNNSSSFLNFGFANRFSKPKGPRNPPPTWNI
Sequence of SUMO E1/E2 (Q9UBE0 whole entry): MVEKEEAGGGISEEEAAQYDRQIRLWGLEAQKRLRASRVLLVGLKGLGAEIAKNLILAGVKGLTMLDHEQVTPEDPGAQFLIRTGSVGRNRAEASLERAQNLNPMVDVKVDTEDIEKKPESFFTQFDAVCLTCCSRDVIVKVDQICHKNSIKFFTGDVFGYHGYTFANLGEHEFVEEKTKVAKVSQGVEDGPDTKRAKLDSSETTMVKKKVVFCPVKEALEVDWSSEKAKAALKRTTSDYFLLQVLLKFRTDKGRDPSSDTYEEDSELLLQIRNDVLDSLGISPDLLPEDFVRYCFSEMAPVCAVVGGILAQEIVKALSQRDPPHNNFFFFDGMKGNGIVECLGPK
Sequence of SUMO E1/E2 (Q9UBT2 whole entry): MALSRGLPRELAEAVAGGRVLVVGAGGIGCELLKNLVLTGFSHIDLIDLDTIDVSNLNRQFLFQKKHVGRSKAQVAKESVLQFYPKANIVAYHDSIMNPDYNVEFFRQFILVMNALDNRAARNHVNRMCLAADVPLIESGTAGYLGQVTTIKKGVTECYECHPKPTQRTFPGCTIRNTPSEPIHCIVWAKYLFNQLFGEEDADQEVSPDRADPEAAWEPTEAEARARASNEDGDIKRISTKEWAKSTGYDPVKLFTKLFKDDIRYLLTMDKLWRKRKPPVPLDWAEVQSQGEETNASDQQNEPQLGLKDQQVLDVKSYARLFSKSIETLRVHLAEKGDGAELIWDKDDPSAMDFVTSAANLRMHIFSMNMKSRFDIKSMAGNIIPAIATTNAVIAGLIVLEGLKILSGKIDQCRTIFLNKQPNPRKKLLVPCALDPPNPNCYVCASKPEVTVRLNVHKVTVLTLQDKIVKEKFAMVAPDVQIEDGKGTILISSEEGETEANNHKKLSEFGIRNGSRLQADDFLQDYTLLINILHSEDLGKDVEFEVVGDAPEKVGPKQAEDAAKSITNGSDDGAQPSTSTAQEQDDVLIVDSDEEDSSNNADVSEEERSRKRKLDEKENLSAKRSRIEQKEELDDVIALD
Sequence of SUMO E1/E2 (P63279 whole entry): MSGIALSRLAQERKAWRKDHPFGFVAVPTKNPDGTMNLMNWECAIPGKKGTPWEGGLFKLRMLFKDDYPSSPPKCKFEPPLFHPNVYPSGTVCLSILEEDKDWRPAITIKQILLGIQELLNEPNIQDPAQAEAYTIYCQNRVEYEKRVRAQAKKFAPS

`c1ccc(-c2nnc(-c3ccccn3)nc2NC2CCCCC2)cc1`: the IC50 in assay [1] is > 39.5 µM (inactive); at Exodeoxyribonuclease V it was > 39.5 µM (inactive); on Nonstructural protein 1, 1.21 µM (active). Moreover, the EC50 in assay [2] was 0.513 µM (inconclusive); in assay [3], 4.27 µM (active); in “cells [4]”, 32.6 µM (active); in the assay on BJ [5] it was 3.21 µM (active); in [6] it was 18.8 µM (active); in the assay with BJ [7] it was 3.31 µM (inconclusive). For the same compound, the concentration giving a half-maximal response (EC50) is 0.585 µM (inconclusive) with BJ [9]; > 50 µM (not active) on Streptokinase A; 4.7 µM (active) with BJ [10]; 4.21 µM (active) with Streptococcus; > 350 µM (not active) in “cells [11]”; 16.9 µM (active) at Protein RecA. Also, the half-maximal effective concentration (EC50) in [12] was 4.44 µM (active); in assay [13] it was 1.66 µM (inconclusive). Besides, the AC50 in the assay with INS1 is 3.94 µM (active); in assay [8], 9.45 µM (active); in assay [14] it was 3.99 µM (active).
Take `CC(/C=C1\SC(=S)N(CCCC(=O)Nc2ccc(C(=O)O)cc2)C1=O)=C\c1ccccc1`: the IC50 at Phospholipase A2 is 5.33 µM (active); on Cysteine protease ATG4B, 6.85 µM (active); in [15] it was 1.28 µM (active); in [16], 1.59 µM (active); in assay [17], 8.24 µM (active); in [18], 17.9 µM (inactive). Further, the values for the IC50 in assay [19], in assay [20] and in [21] were 47.1 µM (active), 38.9 µM (active) and 34.8 µM (active), respectively. Moreover, the EC50 in the assay on Streptococcus was 1.04 µM (active); in [12] it was 0.274 µM (active).
As to `S=c1[nH]nc(-c2cc(-c3ccccc3)[nH]n2)n1N=Cc1cccc(Cl)c1`, on SUMO E1/E2, the IC50 is 12.5 µM (active).
